Assay results published in the NIST ThermoML archive (doi:10.1016/j.tca.2010.05.016).
± gives the expanded uncertainty stated by the source.

Assay: wn = mass fraction of the nth substance listed
Conditions: 101 kPa, Liquid; for speed of sound: Vibrating Tube; for mass density: Vibrating tube method

O=C[C@H](O)[C@@H](O)[C@H](O)[C@H](O)CO [D-glucose] + O
Conditions	mass density, 288.15 K [kg/m3]	mass density, 293.15 K [kg/m3]	mass density, 298.15 K [kg/m3]	mass density, 303.15 K [kg/m3]	mass density, 308.15 K [kg/m3]	speed of sound, 288.15 K [m/s]	speed of sound, 293.15 K [m/s]	speed of sound, 298.15 K [m/s]	speed of sound, 303.15 K [m/s]	speed of sound, 308.15 K [m/s]
w1 = 0.0206	–	1006.08 ± 0.047	1004.86 ± 0.047	1003.41 ± 0.046	1001.75 ± 0.045	1475.6 ± 3.3	–	–	1517.3 ± 3.3	1527 ± 3.3
w1 = 0.0396	1014.53 ± 0.061	1013.52 ± 0.06	1012.25 ± 0.06	1010.76 ± 0.059	–	1482.2 ± 3.3	1497.7 ± 3.3	1511.3 ± 3.3	1523 ± 3.3	1533 ± 3.3
w1 = 0.0591	1022.21 ± 0.079	1021.13 ± 0.079	1019.81 ± 0.078	1018.27 ± 0.077	1016.54 ± 0.076	1490 ± 3.3	1505.1 ± 3.3	1518.4 ± 3.3	1529.9 ± 3.3	1539.5 ± 3.3
